How the values were obtained:
Experiment in all cases: Weeding effect in post-emergence stage
Type in all cases: in vivo
Conditions in all cases: 250 g/ha; 2 leaf stage; 15 days after application; fresh weight control rate
Abutilon theophrasti = system: Abutilon theophrasti
Method in brief: (§1)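 Activity graded 0 (<5%) to 5 (>85%) from fresh-weight control rate, averaged over three repeats, 15 days after a spray-tower application. Plants at 2-leaf stage (2 weeks post-sowing) received 15–500 g/ha of compound formulated in acetone, Tween 80 and methyl oleate synergist (1.5 L/ha).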

Amaranthus retroflexus = system: Amaranthus retroflexus
Method in brief: as §1

Digitaria sanguinalis = system: Digitaria sanguinalis
Method in brief: as §1

Echinochloa crusgali = system: Echinochloa crusgali
Method in brief: as §1

Setaria viridis = system: Setaria viridis
Method in brief: as §1

SMILES | weeding effect in post-emergence stage, activity level (growth control rate), Abutilon theophrasti (Abutilon theophrasti) | weeding effect in post-emergence stage, activity level (growth control rate), Amaranthus retroflexus (Amaranthus retroflexus) | weeding effect in post-emergence stage, activity level (growth control rate), Digitaria sanguinalis (Digitaria sanguinalis) | weeding effect in post-emergence stage, activity level (growth control rate), Echinochloa crusgali (Echinochloa crusgali) | weeding effect in post-emergence stage, activity level (growth control rate), Setaria viridis (Setaria viridis)
CCc1nnc(NC(=O)c2ccc(C(F)(F)F)c([S@+]([O-])CC)c2OC)o1 [Compound 424] | 5 (Level 5: growth control rate is above 85%) | 5 (Level 5: growth control rate is above 85%) | 5 (Level 5: growth control rate is above 85%) | 5 (Level 5: growth control rate is above 85%) | 5 (Level 5: growth control rate is above 85%)
CC[S@@+]([O-])c1c(C(F)(F)F)ccc(C(=O)Nc2nnnn2C)c1OC [Compound 445] | 5 (Level 5: growth control rate is above 85%) | 5 (Level 5: growth control rate is above 85%) | 5 (Level 5: growth control rate is above 85%) | 5 (Level 5: growth control rate is above 85%) | 5 (Level 5: growth control rate is above 85%)
CCn1nnnc1NC(=O)c1ccc(C(F)(F)F)c([S@+]([O-])CC)c1OC [Compound 446] | 5 (Level 5: growth control rate is above 85%) | 5 (Level 5: growth control rate is above 85%) | 5 (Level 5: growth control rate is above 85%) | 5 (Level 5: growth control rate is above 85%) | 5 (Level 5: growth control rate is above 85%)
CCCn1nnnc1NC(=O)c1ccc(C(F)(F)F)c([S@+]([O-])CC)c1OC [Compound 447] | 5 (Level 5: growth control rate is above 85%) | 5 (Level 5: growth control rate is above 85%) | 5 (Level 5: growth control rate is above 85%) | 5 (Level 5: growth control rate is above 85%) | 5 (Level 5: growth control rate is above 85%)
CCC[S@@+]([O-])c1c(C(F)(F)F)ccc(C(=O)Nc2nnc(C)o2)c1OC [Compound 531] | 5 (Level 5: growth control rate is above 85%) | 5 (Level 5: growth control rate is above 85%) | 5 (Level 5: growth control rate is above 85%) | 5 (Level 5: growth control rate is above 85%) | 5 (Level 5: growth control rate is above 85%)
CCC[S@@+]([O-])c1c(C(F)(F)F)ccc(C(=O)Nc2nnc(C)o2)c1OCC [Compound 532] | 5 (Level 5: growth control rate is above 85%) | 5 (Level 5: growth control rate is above 85%) | 5 (Level 5: growth control rate is above 85%) | 5 (Level 5: growth control rate is above 85%) | 5 (Level 5: growth control rate is above 85%)
CCCOc1c(C(=O)Nc2nnc(C)o2)ccc(C(F)(F)F)c1[S@+]([O-])CCC [Compound 533] | 5 (Level 5: growth control rate is above 85%) | 5 (Level 5: growth control rate is above 85%) | 5 (Level 5: growth control rate is above 85%) | 5 (Level 5: growth control rate is above 85%) | 5 (Level 5: growth control rate is above 85%)
CCC[S@@+]([O-])c1c(C(F)(F)F)ccc(C(=O)Nc2nnc(C)o2)c1OC(C)C [Compound 534] | 5 (Level 5: growth control rate is above 85%) | 5 (Level 5: growth control rate is above 85%) | 5 (Level 5: growth control rate is above 85%) | 5 (Level 5: growth control rate is above 85%) | 5 (Level 5: growth control rate is above 85%)
CCCCOc1c(C(=O)Nc2nnc(C)o2)ccc(C(F)(F)F)c1[S@+]([O-])CCC [Compound 535] | 5 (Level 5: growth control rate is above 85%) | 5 (Level 5: growth control rate is above 85%) | 5 (Level 5: growth control rate is above 85%) | 5 (Level 5: growth control rate is above 85%) | 5 (Level 5: growth control rate is above 85%)
CCC[S@@+]([O-])c1c(C(F)(F)F)ccc(C(=O)Nc2nnc(C)o2)c1Cl [Compound 543] | 5 (Level 5: growth control rate is above 85%) | 5 (Level 5: growth control rate is above 85%) | 5 (Level 5: growth control rate is above 85%) | 5 (Level 5: growth control rate is above 85%) | 5 (Level 5: growth control rate is above 85%)
CSc1c(C(=O)Nc2nnc(C)o2)ccc(C(F)(F)F)c1[S@+]([O-])CC(C)C [Compound 551] | 5 (Level 5: growth control rate is above 85%) | 5 (Level 5: growth control rate is above 85%) | 5 (Level 5: growth control rate is above 85%) | 5 (Level 5: growth control rate is above 85%) | 5 (Level 5: growth control rate is above 85%)
C#CC[S@@+]([O-])c1c(C(F)(F)F)ccc(C(=O)Nc2nnc(C)o2)c1SC [Compound 553] | 5 (Level 5: growth control rate is above 85%) | 5 (Level 5: growth control rate is above 85%) | 5 (Level 5: growth control rate is above 85%) | 5 (Level 5: growth control rate is above 85%) | 5 (Level 5: growth control rate is above 85%)
CSc1c(C(=O)Nc2nnc(C)o2)ccc(C(F)(F)F)c1[S@+]([O-])CCF [Compound 555] | 5 (Level 5: growth control rate is above 85%) | 5 (Level 5: growth control rate is above 85%) | 5 (Level 5: growth control rate is above 85%) | 5 (Level 5: growth control rate is above 85%) | 5 (Level 5: growth control rate is above 85%)
CSc1c(C(=O)Nc2nnc(C)o2)ccc(C(F)(F)F)c1[S@+]([O-])CC(F)(F)F [Compound 556] | 5 (Level 5: growth control rate is above 85%) | 5 (Level 5: growth control rate is above 85%) | 5 (Level 5: growth control rate is above 85%) | 5 (Level 5: growth control rate is above 85%) | 5 (Level 5: growth control rate is above 85%)
CSc1c(C(=O)Nc2nnc(C)o2)ccc(C(F)(F)F)c1[S@+]([O-])CC(C)F (some centres unmarked) [Compound 557] | 5 (Level 5: growth control rate is above 85%) | 5 (Level 5: growth control rate is above 85%) | 5 (Level 5: growth control rate is above 85%) | 5 (Level 5: growth control rate is above 85%) | 5 (Level 5: growth control rate is above 85%)
CSc1c(C(=O)Nc2nnc(C)o2)ccc(C(F)(F)F)c1[S@+]([O-])CC(F)F [Compound 558] | 5 (Level 5: growth control rate is above 85%) | 5 (Level 5: growth control rate is above 85%) | 5 (Level 5: growth control rate is above 85%) | 5 (Level 5: growth control rate is above 85%) | 5 (Level 5: growth control rate is above 85%)
